Data published in patent US9084788B2, “Compositions and methods for treating and preventing dermatoses” (Asymmetric Therapeutics, LLC, priority 2002, dated 2015).

Experiments:
[1] = system: patients (Hand and Foot syndrome); test: Ten patients treated one to six months, prevention of Hand and Foot syndrome; assay type: in vivo, human
Text: The calculations are based on topical application of 1 g of cream to the hands and 1 g to the feet twice a day, totaling 4 g. […] A volume of distribution (Vd) of 50 L is assumed.

[2] = target: T1, human dihydrouracil dehydrogenase (DPD) (Homo sapiens, UniProt Q12882); conditions: Naguib et al. 1985; cited from earlier work
T1 sequence (Q12882 4-1025): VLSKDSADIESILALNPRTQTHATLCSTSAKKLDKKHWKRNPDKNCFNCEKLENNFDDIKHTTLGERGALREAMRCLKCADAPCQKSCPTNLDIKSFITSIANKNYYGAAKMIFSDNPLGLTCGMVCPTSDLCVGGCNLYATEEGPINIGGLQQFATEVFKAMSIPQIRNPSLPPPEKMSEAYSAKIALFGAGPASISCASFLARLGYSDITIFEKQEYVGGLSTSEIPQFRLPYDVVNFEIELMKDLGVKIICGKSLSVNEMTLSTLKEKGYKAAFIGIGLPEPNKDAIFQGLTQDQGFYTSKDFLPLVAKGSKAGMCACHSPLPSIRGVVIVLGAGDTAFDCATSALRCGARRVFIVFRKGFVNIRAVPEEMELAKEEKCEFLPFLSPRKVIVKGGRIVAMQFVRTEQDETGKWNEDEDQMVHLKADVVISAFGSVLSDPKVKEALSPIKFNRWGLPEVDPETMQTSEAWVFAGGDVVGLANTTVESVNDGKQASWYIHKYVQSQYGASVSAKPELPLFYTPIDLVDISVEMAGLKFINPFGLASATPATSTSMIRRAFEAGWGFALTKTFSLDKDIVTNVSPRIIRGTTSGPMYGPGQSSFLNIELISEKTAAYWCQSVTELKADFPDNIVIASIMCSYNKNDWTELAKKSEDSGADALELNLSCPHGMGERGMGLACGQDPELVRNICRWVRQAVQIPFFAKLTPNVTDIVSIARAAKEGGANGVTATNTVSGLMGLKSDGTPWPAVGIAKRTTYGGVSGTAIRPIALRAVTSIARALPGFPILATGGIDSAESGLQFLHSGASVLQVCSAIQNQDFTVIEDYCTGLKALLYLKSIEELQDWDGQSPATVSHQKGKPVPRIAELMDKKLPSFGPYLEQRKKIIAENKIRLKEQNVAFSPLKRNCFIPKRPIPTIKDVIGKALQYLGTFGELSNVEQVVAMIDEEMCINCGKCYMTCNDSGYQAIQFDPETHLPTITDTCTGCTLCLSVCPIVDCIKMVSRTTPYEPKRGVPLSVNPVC

OPRT = target: T2, OPRT (Homo sapiens, UniProt P11172); conditions: neutral pH; cited from earlier work
T2 sequence (P11172 1-480): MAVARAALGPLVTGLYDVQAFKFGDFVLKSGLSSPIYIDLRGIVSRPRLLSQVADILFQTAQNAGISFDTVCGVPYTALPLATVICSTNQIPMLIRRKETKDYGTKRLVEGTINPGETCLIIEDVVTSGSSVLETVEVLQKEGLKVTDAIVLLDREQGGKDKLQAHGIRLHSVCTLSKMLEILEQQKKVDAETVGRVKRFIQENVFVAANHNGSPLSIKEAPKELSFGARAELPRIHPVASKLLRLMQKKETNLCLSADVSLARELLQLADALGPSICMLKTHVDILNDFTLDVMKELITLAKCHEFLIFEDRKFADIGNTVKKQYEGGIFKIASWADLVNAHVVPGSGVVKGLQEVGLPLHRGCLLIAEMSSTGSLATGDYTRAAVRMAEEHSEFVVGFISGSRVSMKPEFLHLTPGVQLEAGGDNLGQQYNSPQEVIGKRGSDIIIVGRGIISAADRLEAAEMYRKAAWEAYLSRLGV

[3] = target: T3, dihydropyrimidine dehydrogenase (DPD) (Homo sapiens, UniProt Q12882); conditions: in vivo; cited from earlier work
T3 construct: greater than 80% of an injected dose of 5-FU rapidly degraded by a single pathway
T3 sequence (Q12882 4-1025): T1 sequence (Q12882 4-1025)

[4] = system: patients (hand-foot syndrome); conditions: in vivo; cited from earlier work
[5] = system: Marker tumor (metastatic breast cancer); test: Marker tumor size in the metastatic breast cancer patient on Xeloda and Taxotere; assay type: in vivo, human; conditions: seen prior to course 5, on lower dose Xeloda (1000 mg/m^2)
Text: They had refused mastectomy and had previously failed adriamycin and cytoxan, weekly taxol, and weekly navelbine. […] FIGS. 3A, 3B and 3C illustrate the incidence of Hand and Foot syndrome in patients treated with Xeloda®.

Q: For `O=c1cc[nH]c(=O)[nH]1` [Uracil, uracil], which toxicity [1] is on record?
A: The toxicity was “no reports of toxicity”.

Q: What about the “prevention of Hand and Foot syndrome” value ([1]; 1% cream) of the same compound?
A: The value was “complete efficacy”.

Q: What does the source list for `O=c1[nH]cc(F)c(=O)[nH]1` [5-FU, 5-fluorouracil]?
A: substrate quality for DPD compared with uracil [2]: better substrate; OPRT preference for 5-FU over uracil (OPRT): about 50 times; share of an injected dose rapidly degraded by the DPD pathway [3]: greater than 80%

Q: For `CCCCCOC(=O)Nc1nc(=O)n([C@@H]2O[C@H](C)[C@@H](O)[C@H]2O)cc1F` [Xeloda, capecitabine], which “frequency of hand-foot syndrome during treatment” value [4] is on record?
A: The value was “common”.

Q: What about the “patients with Grade II-III hand foot toxicity” value [4] of the same compound?
A: Its value is 10-50%.

Q: What about the “Marker tumor course (remark)” value [5] of the same compound?
A: Its value is “progression”.

Q: Which “Km for OPRT, lower than that of 5-FU” value (OPRT) does the source give for `O=C(O)c1cc(=O)[nH]c(=O)[nH]1` [Orotate, orotate] here?
A: The value was about 50 fold.
